Source: article PMC7385489, “β-hydroxybutyrate and hydroxycarboxylic acid receptor 2 agonists activate the AKT, ERK and AMPK pathways, which are involved in bovine neutrophil chemotaxis” (Scientific Reports, 2020)
pEC50: −log10 of the molar value.

Target: hydroxycarboxylic acid receptor 2 (HCA2) (Bos taurus, UniProt G3N168)
Experiment: Fura-2 calcium mobilization in native bovine neutrophils expressing HCA2
Assay type: cell-based

Sequence of hydroxycarboxylic acid receptor 2 (HCA2) (G3N168 1-379): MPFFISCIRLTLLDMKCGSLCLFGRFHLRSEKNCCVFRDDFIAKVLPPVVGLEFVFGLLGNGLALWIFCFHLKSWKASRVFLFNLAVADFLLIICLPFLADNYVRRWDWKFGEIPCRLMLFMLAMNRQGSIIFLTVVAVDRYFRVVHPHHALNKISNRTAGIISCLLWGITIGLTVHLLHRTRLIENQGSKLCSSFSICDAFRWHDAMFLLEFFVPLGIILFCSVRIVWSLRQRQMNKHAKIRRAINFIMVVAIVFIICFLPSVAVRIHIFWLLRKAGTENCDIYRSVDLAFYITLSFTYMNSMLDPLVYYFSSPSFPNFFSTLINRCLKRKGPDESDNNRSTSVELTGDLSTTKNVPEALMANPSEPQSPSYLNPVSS

pEC50	Structure (SMILES)
7.47	O=C(O)c1n[nH]c2c1C[C@H]1C[C@@H]21 [MK-1903, (1aR,5aR)1a,3,5,5a-Tetrahydro-1H-2,3-diaza-cyclopropa[a]pentalene-4-carboxylic acid]
2.58	CC(O)CC(=O)O (stereo not drawn) [BHB, β-hydroxybutyrate]
